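Test compounds were applied to cells in 96-well plates for 48 hours at 5 doses. GI50 is the concentration that inhibits growth by half.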 Calls of active or inactive are those of the source. Rule as the data show it: active = GI50 up to about 1.1 µM and inactive = higher.
What was measured:
Test in all cases: growth of human tumour cells (NCI), 48 h
CAKI-1 = test system: CAKI-1
HOP-92 = test system: HOP-92
HT-29 = test system: HT-29
Hs-578T = test system: Hs-578T
LOX IMVI = test system: LOX IMVI
MCF7 = test system: MCF7
MDA-MB-231 = test system: MDA-MB-231
MDA-MB-435 = test system: MDA-MB-435
Malme-3M = test system: Malme-3M
NCI-H226 = test system: NCI-H226
NCI-H460 = test system: NCI-H460
NCI-H522 = test system: NCI-H522
OVCAR-3 = test system: OVCAR-3
RXF 393 = test system: RXF 393
SF-268 = test system: SF-268
SK-OV-3 = test system: SK-OV-3
SN12C = test system: SN12C
UACC-257 = test system: UACC-257
UO-31 = test system: UO-31
HCC 2998 = test system: HCC 2998

| Structure (SMILES) | GI50 (CAKI-1) | GI50 (HOP-92) | GI50 (HT-29) | GI50 (Hs-578T) | GI50 (LOX IMVI) | GI50 (MCF7) | GI50 (MDA-MB-231) | GI50 (MDA-MB-435) | GI50 (Malme-3M) | GI50 (NCI-H226) | GI50 (NCI-H460) | GI50 (NCI-H522) | GI50 (OVCAR-3) | GI50 (RXF 393) | GI50 (SF-268) | GI50 (SK-OV-3) | GI50 (SN12C) | GI50 (UACC-257) | GI50 (UO-31) | GI50 (HCC 2998) |
| --- | --- | --- | --- | --- | --- | --- | --- | --- | --- | --- | --- | --- | --- | --- | --- | --- | --- | --- | --- | --- |
| CC1(CCC(=O)OC2CCCCC2)OCCO1 | > 100 µM (inactive) | > 100 µM (inactive) | > 100 µM (inactive) | > 100 µM (inactive) | > 100 µM (inactive) | > 100 µM (inactive) | > 100 µM (inactive) | > 100 µM (inactive) | > 100 µM (inactive) | > 100 µM (inactive) | > 100 µM (inactive) | > 100 µM (inactive) | > 100 µM (inactive) | > 100 µM (inactive) | > 100 µM (inactive) | > 100 µM (inactive) | > 100 µM (inactive) | > 100 µM (inactive) | > 100 µM (inactive) |  |
| CCOC(=O)/C(=C\c1ccc(N(C)C)cc1)S(=O)(=O)C(F)(F)C(F)(F)C(F)(F)C(F)(F)F | > 100 µM (inactive) | > 100 µM (inactive) | > 100 µM (inactive) | > 100 µM (inactive) | > 100 µM (inactive) | > 100 µM (inactive) | > 100 µM (inactive) | > 100 µM (inactive) | > 100 µM (inactive) | > 100 µM (inactive) | > 100 µM (inactive) | > 100 µM (inactive) | > 100 µM (inactive) |  | > 100 µM (inactive) | > 100 µM (inactive) | > 100 µM (inactive) | > 100 µM (inactive) | 55.1 µM (inactive) | > 100 µM (inactive) |
| CSc1nc(NC(C)C)c2c(n1)Sc1nc3ccccc3n1N=C2 | 28.7 µM (inactive) | 11.1 µM (inactive) | 21 µM (inactive) | 20 µM (inactive) | 10.7 µM (inactive) | 20.3 µM (inactive) | 11.1 µM (inactive) | 17.4 µM (inactive) | 9.18 µM (inactive) | 0.57 µM (active) | 6.34 µM (inactive) | 22.9 µM (inactive) | 10.4 µM (inactive) |  | 25.7 µM (inactive) | 11.1 µM (inactive) | 10.7 µM (inactive) | 29.1 µM (inactive) | 5.32 µM (inactive) | 3.65 µM (inactive) |
| CC(=O)Nc1ccc(C(=O)NN2C(=O)CSC2c2ccccc2)cc1 (stereo not given) |  | > 100 µM (inactive) | > 100 µM (inactive) | > 100 µM (inactive) |  | > 100 µM (inactive) | > 100 µM (inactive) | > 100 µM (inactive) |  | > 100 µM (inactive) | > 100 µM (inactive) |  | > 100 µM (inactive) | > 100 µM (inactive) | > 100 µM (inactive) | > 100 µM (inactive) | > 100 µM (inactive) | > 100 µM (inactive) | > 100 µM (inactive) | > 100 µM (inactive) |
| COC(=O)c1cc2c(cc1O)[C@@H](NC(C)=O)CCc1cc(OC)c(OC)c(OC)c1-2 | 0.0993 µM (active) | 0.0647 µM (active) | 0.044 µM (active) | 0.017 µM (active) | 0.0501 µM (active) | < 0.01 µM (active) | 0.0923 µM (active) | 0.0262 µM (active) | 0.0243 µM (active) | 0.023 µM (active) | 0.0528 µM (active) | 0.0222 µM (active) | 0.0518 µM (active) |  | 0.0792 µM (active) | 0.0951 µM (active) | 0.127 µM (active) | 0.0715 µM (active) | 0.445 µM (active) | 0.0578 µM (active) |
| CCOP(=O)(C[S+](C)[O-])O[C@@H]1C[C@H](C)CC[C@H]1C(C)C (stereo not given in full) | 2.88 µM (inactive) | 3.97 µM (inactive) |  | 3.26 µM (inactive) | 1.77 µM (inactive) | 3.08 µM (inactive) | 3.03 µM (inactive) | 3.21 µM (inactive) | 11 µM (inactive) | 3.92 µM (inactive) | 4.5 µM (inactive) | 2.26 µM (inactive) | 4.44 µM (inactive) | 2.59 µM (inactive) | 6.44 µM (inactive) | 6.95 µM (inactive) | 0.434 µM (active) | 6.4 µM (inactive) | 1.17 µM (inactive) |  |

Source: ChEMBL document CHEMBL1201862, “PubChem BioAssay data set” (2004)
